Laboratory results published in patent US20260049089A1, “KRAS INHIBITOR COMPOUND” (SHANGHAI APEIRON THERAPEUTICS COMPANY LIMITED, priority 2022, published 2026).
Where two headings read alike, the source gives them in different places.

Tests used:
[1] = the molecule shown is the open-chain precursor
AsPC-1 cells = experiment: 3D cell proliferation assay (CellTiter-Glo 3D), AsPC-1; assay type: cell-based; details: 5 days, read-out: 3D Proliferation Inhibition AsPC-1_IC50
Protocol: (§1) Using a nanoliter liquid handling system (LABCYTE, P-0200), the diluted test compounds were added to a 384-well low-adsorption cell culture plate. Cells were seeded into the wells, and the plate was placed in an incubator at 37° C. with 5% CO2. After co-incubating the compounds and cells for 5 days, CellTiter-Glo® 3D reagent was added. Luminescence values were measured using an EnVision Multilabel Plate Reader (luminescence is proportional to the ATP content in the system, and ATP content directly reflects the number of viable cells). Finally, the IC50 values (half-maximal inhibitory concentrations) of the compounds were determined using non-linear fitting equations in XLFit software with the following parameters: […]
(§2) X: Logarithm of compound concentration • Y: Inhibition rate (%)
(§3) [formula] • Negative control: DMSO • Positive control: Medium only

AGS cells = experiment: 3D cell proliferation assay (CellTiter-Glo 3D), AGS; assay type: cell-based; details: 5 days, read-out: 3D Proliferation Inhibition AGS_IC50
Protocol: as §1, §2, §3

pERK in AGS cells = experiment: ERK phosphorylation cell assay, AGS; assay type: cell-based; details: 3 hours compound incubation, read-out: pERK AGS_IC50
Outline: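 AGS […] cells, seeded overnight, were treated with compound for 3 hours at 37° C. pERK was detected by in-cell immunofluorescence, with GAPDH as normalizer, using 800CW/680RD secondary antibodies. Mean relative p-ERK levels were fitted against log concentration, with DMSO as negative and 10 μM Reference as positive control.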

pERK in AsPC-1 cells = experiment: ERK phosphorylation cell assay, AsPC-1; assay type: cell-based; details: read-out: pERK AsPC-1_IC50
[2] = Homo sapiens, ASPC1, AsPC-1 cells

Row | SMILES | ring closure, isolated yield ([1]; cc_pd bond, 15-membered ring, PdCl2(PPh3)2/CuI/I2, toluene/iPr2NH 1:1, 1.1 mM, 80.0 °C) [%] | IC50 (AsPC-1 cells) [nM] | IC50 (AGS cells) [nM] | IC50 (pERK in AGS cells) [nM] | IC50 (pERK in AsPC-1 cells; AsPC-1 cells) [nM] | IC50 (AsPC-1 cells; Homo sapiens, ASPC1, 120 h) [nM] | IC50 (AGS cells; Homo sapiens, AGS, 120 h) [nM] | IC50 (pERK in AGS cells; Homo sapiens, AGS, 3 h) [nM] | IC50 (pERK in AsPC-1 cells; [2]) [nM] | ring closure, isolated yield ([1]; amine bond, 12-membered ring, PPh3/DIAD, THF, 32.5 mM, 65.0 °C) [%]
1 | C#CCCCCC(=O)Nc1cc2c(N3C[C@H]4CC[C@@H](C3)N4C(=O)OC(C)(C)C)nc(OCC(F)(F)F)nc2c(F)c1-c1cc(OCOC)cc2ccc(F)c(C#C)c12 | 53 |  |  |  |  |  |  |  |  | 
2 | CN1CCC[C@H]1COc1nc(N2CCC[C@@](C)(O)C2)c2cc3c(c(F)c2n1)-c1cc(O)cc2ccc(F)c(c12)CCCCCN3 (single isomer, unassigned) [Example 28B] |  | 3550 | 3360 | > 10000 | > 10000 |  |  |  |  | 
3 | C=C1CN2CCC[C@@]2(COc2nc(N3CCC[C@@](C)(O)C3)c3cc4c(c(F)c3n2)-c2cc(O)cc3ccc(F)c(c23)CCOCCN4)C1 (single isomer, unassigned) [Example 42A] |  | 456 | 125 | 26 | 134 |  |  |  |  | 
4 | C=C1CN2CCC[C@@]2(COc2nc(N3CCC[C@@](C)(O)C3)c3cc4c(c(F)c3n2)-c2cccc3ccc(F)c(c23)CCOCCN4C)C1 [Example 54, (R)-1-(3,15-difluoro-9-methyl-13-(((S)-2-methylenetetrahydro-1H-pyrazin-7a(5H)-yl)methoxy)-4,5,8,9-tetrahydro-7H-naphtho[1′,8′:7,8,9][1]oxa[4]azacycloundeca[5,6-g]quinazoline-11-yl)-3-methylpiperidin-3-ol] |  |  |  |  |  | 1260 | 885 | 659 | 892 | 
5 | C=C1CN2CCCC2(COc2nc(N3CCC[C@@](C)(O)C3)c3cc4c(c(F)c3n2)-c2cc(N)cc3ccc(F)c(c23)CCCCCN4)C1 (stereo partly drawn) [Example 40, (3R)-1-(17-amino-3,15-difluoro-13-((2-methylenetetrahydro-1H-pyrazin-7a(5H)-yl)methoxy)-4,5,6,7,8,9-hexahydronaphtho[1′,8′:4,5,6][1]azacycloundecano[2,3-g]quinazolin-11-yl)-3-methylpiperidin-3-ol] |  |  |  |  |  | 2170 | 2050 | 9110 | > 10000 | 
6 | CN1CC(F)(F)C[C@H]1COc1nc(N2CCC[C@@](C)(O)C2)c2cc3c(c(F)c2n1)-c1cc(O)cc2ccc(F)c(c12)CCCCCN3 [Example 34, 13-(((S)-4,4-difluoro-1-methylpyrrolidin-2-yl)methoxy)-3,15-difluoro-11-((R)-3-hydroxy-3-methylpiperidin-1-yl)-4,5,6,7,8,9-hexahydro-naphtho[1′,8′:4,5,6][1]azacycloundecino[2,3-g]quinazoline-17-ol] |  |  |  |  |  | 3350 | 3660 | 8960 | > 10000 | 
7 | C=C1CN2CCC[C@@]2(COc2nc(N3CCC[C@@](C)(O)C3)c3cc4c(c(F)c3n2)-c2cc(O)cc3ccc(F)c(c23)CCOCCN4)C1 (single isomer, unassigned) [Example 42B] |  | 341 | 61 | 12 | 74 |  |  |  |  | 
8 | C[C@@]1(O)CCCN(c2nc(OCC3(CN4CCOCC4)CC3)nc3c(F)c4c(cc23)NCCCCCc2c(F)ccc3cc(O)cc-4c23)C1 [Example 26] |  |  |  | 74 | 234 | 607 | 393 | 51 | 218 | 
9 | COCOc1cc(-c2c(NC(=O)OCc3ccccc3)cc3c(N4C[C@H]5CC[C@@H](C4)N5C(=O)OC(C)(C)C)nc(OCC(F)(F)F)nc3c2F)c2c(CCCCCCO)c(F)ccc2c1 |  |  |  |  |  |  |  |  |  | 34
10 | CN1CCCCc2c(F)ccc3cc(O)cc(c23)-c2c1cc1c(N3CC4CCC(C3)N4)nc(OC[C@@]34CCCN3C[C@H](F)C4)nc1c2F [Example 3, 10-((1R,5S)-3,8-Diazabicyclo[3.2.1]octan-3-yl)-3,14-difluoro-12-(((2R,7aS)-2-fluorotetrahydro-1H-pyrazin-7a(5H)-yl)methoxy)-8-methyl-5,6,7,8-tetrahydro-4H-naphtho[1′,8′:4,5,6]acridin[2,3-g]quinazolin-16-ol] |  |  |  |  |  | 393 | 329 | 47 | 104 | 
11 | C=C1CN2CCC[C@@]2(COc2nc(N3CCC[C@@](C)(O)C3)c3cc4c(c(F)c3n2)-c2cc(N)cc3ccc(F)c(c23)CCOCCN4C)C1 [Example 56, (R)-1-(17-amino-3,15-difluoro-9-methyl-13-(((S)-2-methylenetetrahydro-1H-pyrazin-7a(5H)-yl)methoxy)-4,5,8,9-tetrahydro-7H-naphtho[1′,8′:7,8,9][1]oxa[4]azacycloundeca[5,6-g]quinazoline-11-yl)-3-methylpiperidin-3-ol] |  |  |  |  |  | 1460 | 668 | 206 | 707 | 
12 | CN1CCOCCc2c(F)ccc3cc(O)cc(c23)-c2c1cc1c(N3CCC[C@@](C)(O)C3)nc(OC[C@@]34CCCN3C[C@H](F)C4)nc1c2F [Example 47, 3,15-difluoro-13-(((2R,7aS)-2-fluorotetrahydro-1H-pyrazin-7a(5H)-yl)methoxy)-11-((R)-3-hydroxy-3-methylpiperidin-1-yl)-9-methyl-4,5,8,9-tetrahydro-7H-naphtho[1′,8′:7,8,9][1]oxa[4]azacycloundeca[5,6-g]quinazoline-17-ol] |  | 28 | 8.8 | 2.7 | 7.9 |  |  |  |  | 
